US11725000B2, “Apoptosis inhibitors” (National Institute of Biological Sciences, Beijing, priority 2017, dated 2023)
pEC50: −log10 of the molar value. Read-outs that look alike come from different tables or passages of the source.

Tested on: U2OS_Bim cells
Experiment: Apoptosis inhibition assay (Bim-induced apoptosis, cell viability by ATP level)
Assay type: cell-based
Conditions: U2OS_Bim cells, numbering of Tables 4a/4b
Procedure: A chemical library containing 200000 compounds was screened according to the following procedure: U2OS_Bim cells (a cell line in which the BH3-only protein Bim can be inducibly expressed by the addition of Doxycycline to the growth medium)^[2] were plated in 384-well plates with 30 μl medium at a density of 500 cells per well. 16 hrs after plating, test compounds were transferred from stock plates to the assay plates with the cultured cells. Positive control (20 μM zVAD) and negative control (DMSO) were added to every plate. 1 hr after compound treatment, 0.1 ug/mL Doxycyclin (DOX) was added to induce the expression of the Bim protein. After 24 hrs, cell viability was determined by measuring the ATP levels using a Cell Titer-Glo kit (Promega, G7570) according to the manufacturer's instructions. Luminescence was recorded with a PerkinElmer EnSpire Multimode Plate Reader. Compounds that could rescue cell viability to a level above 50% were selected; these compounds were then screened a second time for assurance.
U2OS_Bim or U2OS_tBid cells were plated at a density of 3000 cells per well in 96-well plates. 24 hrs later, cells were treated with experimental compounds, zVAD (positive control) and DMSO (Negative control) for one hour. The cells were then treated with 0.1 μg/mL DOX to trigger apoptosis. 24 hours after the addition of DOX, cell viability was determined by measuring the ATP levels using a Cell Titer-Glo kit. Cell survival rate was calculated.
U2OS_Bim cells (a U2OS stable cell line transfected with a Bim transgene) were cultured in DMEM culture medium (Gibico). On day one, U2OS_Bim cells were plated in 96-well plates at a density of 3000 cells per well. On day two, cells were pretreated with compounds for one hour. Then cells were treated with 0.1 μg/mL doxycycline (DOX) to trigger apoptosis. 24 hours after DOX treatment, cell viability was determined by measuring the ATP levels using the Cell Titer-Glo kit (G7570, Promega), according to the manufacturer's instructions. Luminescence was recorded with a PerkinElmer EnSpire Multimode Plate Reader. Survived cells were normalized to those cells treated with DMSO. zVAD (20 μM) was used as a positive control. Activity data for compounds […] are represented as means f standard deviation of duplicates; activity data for compounds 187-274 are estimated based on preliminary results.

[1] = means of duplicates, read-out: EC50
[2] = estimated based on preliminary results, read-out: EC50

| SMILES | pEC50 [1] | pEC50 [2] | further results |
| --- | --- | --- | --- |
| COc1ccc(Cn2cc(-c3cc(C(F)(F)F)nc(S(=O)(=O)CCCC(=O)N4CCCCC4)n3)ccc2=O)cc1OC [Compound 155, 1-(3,4-dimethoxybenzyl)-5-(2-((4-oxo-4-(piperidin-1-yl)butyl)sulfonyl)-6-(trifluoromethyl)pyrimidin-4-yl)pyridin-2 (1H)-one] | 6.00 to 9.00 | – | – |
| COc1ccc(Cn2cc(-c3cc(-c4ccco4)nc([S+](C)[O-])n3)ccc2=O)cc1OC (stereo not drawn) [Compound 207] | – | > 5.00 | – |
| COc1ccc(Cn2cc(-c3cc(C(F)F)nc([S+]([O-])c4cccc(N)c4)n3)ccc2=O)cc1OC (stereo not drawn) [Compound 181, 5-(2-((3-aminophenyl)sulfinyl)-6-(difluoromethyl)pyrimidin-4-yl)-1-(3,4-dimethoxybenzyl)pyridin-2 (1H)-one] | 6.00 to 9.00 | – | – |
| CS(=O)(=O)c1nc(-c2ccc(=O)n(Cc3ccc4scnc4c3)c2)cc(C(F)(F)F)n1 [Compound 226] | – | > 5.00 | – |
| C#CCOc1cc(Cn2cc(-c3cc(C(F)(F)F)nc(S(C)(=O)=O)n3)ccc2=O)ccc1OC [Compound 129, 1-(4-methoxy-3-(prop-2-yn-1-yloxy)benzyl)-5-(2-(methylsulfonyl)-6-(trifluoromethyl)pyrimidin-4-yl)pyridin-2 (1H)-one] | – | – | pEC50 (means of duplicates): 6.00 to 9.00 |
| C[S+]([O-])c1nc(-c2ccc(=O)n(Cc3ccc(OC(F)(F)F)cc3)c2)cc(C(F)(F)F)n1 (stereo not drawn) [Compound 116, 5-(2-(methylsulfinyl)-6-(trifluoromethyl)pyrimidin-4-yl)-1-(4-(trifluoromethoxy)benzyl)pyridin-2 (1H)-one] | 5.00 to 6.00 | – | – |
| Cc1cc(-c2cc(F)c(=O)n(Cc3cccc(N(C)C)c3)c2)nc(S(=O)(=O)CCC(OCc2ccccc2F)c2ccccc2)n1 (stereo not drawn) [Compound 339] | – | – | pEC50 (estimated (*Est.) / preliminary results, read-out: EC50): 6.00 to 9.00 |
| COc1ccc(Cn2cc(-c3cc(-c4cnco4)nc([S+](C)[O-])n3)ccc2=O)cc1OC (stereo not drawn) [Compound 214] | – | > 5.00 | – |
| CCc1ccc(Cn2cc(-c3cc(C(F)(F)F)nc([S+](C)[O-])n3)ccc2=O)cc1OC (stereo not drawn) [Compound 265] | – | > 5.00 | – |
| C#Cc1ccc(Cn2cc(-c3cc(C(F)(F)F)nc(S(C)(=O)=O)n3)ccc2=O)cc1 [Compound 122, 1-(4-ethynylbenzyl)-5-(2-(methylsulfonyl)-6-(trifluoromethyl)pyrimidin-4-yl)pyridin-2 (1H)-one] | 6.00 to 9.00 | – | – |
| COc1ccc(Cn2cc(-c3cc(C(F)(F)F)nc(S(=O)(=O)CCCC(N)=O)n3)ccc2=O)cc1OC [Compound 158, 4-((4-(1-(3,4-dimethoxybenzyl)-6-oxo-1,6-dihydropyridin-3-yl)-6-(trifluoromethyl)pyrimidin-2-yl)sulfonyl)butanamide] | > 4.00 | – | – |
| CCc1cc(Cn2cc(-c3cc(C(F)(F)F)nc(S(C)(=O)=O)n3)ccc2=O)ccc1OC [Compound 262] | – | > 5.00 | – |
| COc1ccc(Cn2cc(-c3cc(C(F)(F)F)nc([S+]([O-])Cc4ccccn4)n3)ccc2=O)cc1OC (stereo not drawn) [Compound 187] | – | > 5.00 | – |
| Cc1cc(-c2cc(F)c(=O)n(CC3CCCCC3)c2)nc(S(=O)(=O)CCC(OCc2ccc(F)cc2F)c2ccccc2)n1 (stereo not drawn) [Compound 309, 1-(cyclohexylmethyl)-5-(2-(3-(2,4-difluorobenzyloxy)-3-phenylpropylsulfonyl)-6-methylpyrimidin-4-yl)-3-fluoropyridin-2 (1H)-one] | 5.00 to 6.00 | – | – |
| COc1ccc(Cn2cc(-c3cc(C(F)(F)F)nc([S+]([O-])Cc4ccncc4)n3)ccc2=O)cc1OC (stereo not drawn) [Compound 191] | – | > 5.00 | – |
| COc1cccc(Cn2ccc(-c3cc(C(F)(F)F)nc([S+](C)[O-])n3)c2)c1 (stereo not drawn) [Compound 90, 4-(1-(3-methoxybenzyl)-1H-pyrrol-3-yl)-2-(methylsulfinyl)-6-(trifluoromethyl)pyrimidine] | > 4.00 | – | – |
| CCc1ccc(Cn2cc(-c3cc(C(F)(F)F)nc([S+](C)[O-])n3)ccc2=O)cc1CC (stereo not drawn) [Compound 267] | – | > 5.00 | – |
| COc1ccc(Cn2cc(-c3cc(C(F)F)nc(S(C)(=O)=O)n3)ccc2=O)cc1F [Compound 167, 5-(6-(difluoromethyl)-2-(methylsulfonyl)pyrimidin-4-yl)-1-(3-fluoro-4-methoxybenzyl)pyridin-2 (11H)-one] | 6.00 to 9.00 | – | – |
